The numbers were not newly measured in US20050249757A1, “Pharmaceutical cream formulations” (Glenmark Pharmaceuticals Limited, priority 2004, published 2005), which cites them from elsewhere.

The subject of data set [1] is rabbit skin. The note with it: described as practically nonirritating.
For data set [2], the system named is human subjects. To be noted: 50 human subjects, total of 15 applications; manufacturer's brochure.
The test system of data set [3] is human T cells. The note with it: Th1-type and Th2-type cytokines.
Data set [4] deals with macrophilin-12 (FKBP-12) (Homo sapiens, UniProt P62942).
macrophilin-12 (FKBP-12), sequence (P62942 whole entry): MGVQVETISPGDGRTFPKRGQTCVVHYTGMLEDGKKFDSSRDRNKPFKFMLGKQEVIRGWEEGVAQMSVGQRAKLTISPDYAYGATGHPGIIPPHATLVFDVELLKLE

In the case of `CN1CCCC1=O` [Pharmasolve, N-methyl-2-pyrrolidone], the “PII (skin irritation)” value in data set [1] is 0.5. For the same molecule, the “Dermal irritation and sensitization in repeated insult patch test” value in data set [2] is given as “neither a primary dermal irritant nor a sensitizer”.
Turning to `CC[C@@H]1/C=C(\C)C[C@H](C)C[C@H](OC)[C@H]2O[C@@](O)(C(=O)C(=O)N3CCCC[C@H]3C(=O)O[C@H](/C(C)=C/[C@@H]3CC[C@H](Cl)[C@H](OC)C3)[C@H](C)[C@@H](O)CC1=O)[C@H](C)C[C@@H]2OC` [pimecrolimus, (1R,9S,12S,13R,14S,17R,18E,21 S,23S,24R,25S,27R)-12-[(1E)-2-{(1R,3R,4S)-4-chloro-3-methoxycyclohexyl}-1-methylvinyl]-17-ethyl-1,14-dihydroxy-23,25-dimethoxy-13,19,21,27-tetramethyl-11,28-dioxa-4-aza-tricyclo[22.3.1.04,9]octacos-18-ene-2,3,10,16-tetraone], in data set [3], the “Concentration inhibiting Interleukin-2, interferon gamma, Interleukin-4 and Interleukin-10 cytokine synthesis” value was “nanomolar concentrations”. Further, the “Binding affinity to macrophilin-12 (FKBP-12)” value in data set [4] is “high affinity”.
